Measurements published in ChEMBL document CHEMBL4145563, “Poecillastrin H, a Chondropsin-Type Macrolide with a Conjugated Pentaene Moiety, from a Characella sp. Marine Sponge” (J Nat Prod, 2018).
pIC50: −log10 of the molar value. The source made the active and inactive calls. The calls are words filed in the database; no cut-off is given here.

What was measured:
3Y1 cell line [1] = assay: Cytotoxicity against rat 3Y1 cells after 72 hrs by MTT assay; assay type: functional, cell-based; details: 3Y1, 72 h
3Y1 cell line [2] = assay: Induction of morphological changes in rat 3Y1 cells assessed as elongation of cells; assay type: functional, cell-based

| SMILES | pIC50 (3Y1 cell line [1]) | Activity (3Y1 cell line [2]) |
| --- | --- | --- |
| C/C1=C\CC(O)C(C)C(C(NC(=O)C(C)C(O)CCC(C)C(O)/C(C)=C/C(C)(C)C(O)C(CC(C)C)NC(=O)/C=C/C(C)(C)C(=O)C(C)C(O)C(C)C)C(C)O)OC(=O)[C@H](O)[C@H](C(=O)O)NC(=O)/C=C/C=C/C=C/C=C/C=C/CC2CC(C)CC(CC(O)C(C)C(O)/C(C)=C/C(C)C1O)O2 (stereo partly drawn) | 8.39 | Active |
| CO/C1=C\C(C)=C\[C@@H](C)[C@@H](O)[C@@H](C)C/C(C)=C/C=C/[C@H](OC)[C@@H]([C@@H](C)[C@@H](O)[C@H](C)[C@@]2(O)C[C@@H](O)[C@H](C)[C@@H](C(C)C)O2)OC1=O |  | Active |
